Source: patent US8546404B2, “Compounds that are ERK inhibitors” (Merck Sharp & Dohme, priority 2005, dated 2013)
“And” between values parts separate entries of the source, which are not always exact repeats. Equal entries are not always repeated.

The compounds below were run against fully phosphorylated, active Mouse ERK2 protein (Mus musculus (Mouse), UniProt P63085) (assay: Active ERK2 Assay (IMAP format)). Conditions: read-out: AERK2 IC50.
Format: biochemical
Protocol: Activated ERK2 activity was also determined in the IMAP assay format using the procedure outlined above. […] Reactions proceeded for 30 minutes before termination by addition of 60 μl IMAP detection beads in binding buffer. Plates were read as above after 30 minute binding equilibration.

fully phosphorylated, active Mouse ERK2 protein, sequence (P63085 whole entry): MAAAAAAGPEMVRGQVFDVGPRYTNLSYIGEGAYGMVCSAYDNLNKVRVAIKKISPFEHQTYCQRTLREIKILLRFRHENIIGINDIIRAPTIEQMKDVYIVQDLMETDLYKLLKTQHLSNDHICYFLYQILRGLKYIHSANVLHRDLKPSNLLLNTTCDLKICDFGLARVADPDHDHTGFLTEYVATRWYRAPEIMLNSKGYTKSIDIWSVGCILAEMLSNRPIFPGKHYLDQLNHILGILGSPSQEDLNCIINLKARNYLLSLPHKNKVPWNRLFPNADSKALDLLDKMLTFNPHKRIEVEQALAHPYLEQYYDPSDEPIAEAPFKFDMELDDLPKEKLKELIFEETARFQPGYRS

SMILES | IC50
C=CCC1(C(=O)Nc2ccc3[nH]nc(-c4ccncc4)c3c2)CCN(CC(=O)N2CCN(c3ccc(-c4cnccn4)cc3)CC2)C1 (stereo not drawn) [Example 261] | 0.16 to 18 nM and 0.16 to 1.5 nM
Cc1cnc(-c2ccc(N3CCN(C(=O)CN4CCC(NC=O)(C(=O)Nc5ccc6[nH]nc(-c7ccc(F)cc7)c6c5)C4)[C@H](C)C3)cc2)nc1 (stereo in doubt) [Example 362, 3-Formylamino-1-(2-{2-methyl-4-[4-(5-methyl-pyrimidin-2-yl)-phenyl]-piperazin-1-yl}-2-oxo-ethyl)-pyrrolidine-3-carboxylic acid [3-(4-fluoro-phenyl)-1H-indazol-5-yl]-amide] | 0.16 to 18 nM
O=C(Nc1ccc2[nH]nc(-c3ccncc3)c2c1)[C@@H]1CCN(CC(=O)N2CCc3ncccc3C2)C1 [Example 333] | 0.16 to 18 nM
CC(C)(C)OC(=O)N1CCC(O)(c2nccs2)CC1 [Example 132, 4-Hydroxy-4-thiazol-2-yl-piperidine-1-carboxylic acid tert-butyl ester] | 0.16 to 18 nM
CON(C(=O)[C@@H]1CCN(CC(=O)N2CC=C(c3ccc(-c4ncccn4)cc3)CC2)C1)c1ccc2[nH]nc(-c3ccncc3)c2c1 [Example 611] | 0.16 to 18 nM
CO[C@@]1(C(=O)Nc2ccc3[nH]nc(-c4cc[n+]([O-])c(C5CC5)c4)c3c2)CCN(CC(=O)N2CC=C(c3ccc(-c4ncccn4)cc3)CC2)C1 [Example 670] | 0.16 to 18 nM
O=C(Nc1ccc2[nH]nc(-c3ccc(F)cc3)c2c1)[C@@H]1CCN(CC(=O)N2CCN(c3ccc(-c4ncccn4)cc3)CC2)C1 (stereo in doubt) [Example 1, 1-{2-Oxo-2-[4-(4-pyrimidin-2-yl-phenyl)-piperazin-1-yl]-ethyl}-pyrrolidine-3-carboxylic acid [3-(4-fluoro-phenyl)-1H-indazol-5-yl]-amide] | 0.16 to 18 nM
COCC1(C(=O)Nc2ccc3[nH]nc(-c4ccncc4)c3c2)CCN(CC(=O)N2C[C@@H]3C[C@H]2CN3c2ccc(-c3ncc(F)cn3)cc2)C1 (stereo partly drawn) [Example 303] | 0.16 to 18 nM
CNC(=O)c1n[nH]c2ccc(NC(=O)C3CCN(CC(=O)N4CCC(C#Cc5ncccn5)CC4)C3)cc12 (stereo not drawn) [Example 142, 5-({1-[2-oxo-2-(4-pyrimidin-2-ylethynyl-piperidin-1-yl)-ethyl]-pyrrolidine-3-carbonyl}-amino)-1H-indazole-3-carboxylic acid methylamide] | 0.16 to 18 nM
Cc1cnc(-c2ccc(N3CCN(C(=O)CN4CCC(C(=O)Nc5ccc6[nH]nc(-c7ccc(F)cc7)c6c5)C4)[C@H](C)C3)cc2)nc1 (stereo partly drawn) [Example 120] | 0.16 to 18 nM

Further lines, results first:

IC50 | SMILES
0.16 to 18 nM | CO[C@@]1(C(=O)Nc2ccc3[nH]nc(-c4ccnc(C(F)(F)F)c4)c3c2)CCN(CC(=O)N2CCC(c3ccc(-c4ncccn4)cc3)CC2)C1 [Example 788]
0.16 to 18 nM | CO[C@@]1(C(=O)Nc2ccc3[nH]nc(-c4ccnc(C(F)F)c4)c3c2)CCN(CC(=O)N2CCC(C)(c3ccc(-c4ncccn4)cc3)CC2)C1 [Example 679]
0.16 to 18 nM | CO[C@@]1(C(=O)Nc2ccc3[nH]nc(C4CCOCC4)c3c2)CCN(CC(=O)N2CC=C(c3ccc(-c4ncccn4)cc3)CC2)C1 [Example 779]
0.16 to 18 nM | CO[C@@]1(C(=O)Nc2ccc3[nH]nc(-c4ccc(F)cc4)c3c2)CCN(CC(=O)N2CC=C(c3ncc(-c4ncccn4)s3)CC2)C1 [Example 776]
0.16 to 18 nM | COCCOc1ccc(-c2n[nH]c3ccc(NC(=O)[C@]4(OC)CCN(CC(=O)N5CC=C(c6ccc(-c7ncccn7)cc6)CC5)C4)cc23)cc1F [Example 749]
0.16 to 18 nM | COCCOc1ccc(-c2n[nH]c3ccc(NC(=O)[C@]4(OC)CCN(CC(=O)N5CCC(c6ccc(-c7ncccn7)cc6)CC5)C4)cc23)cc1 [Example 764]
0.16 to 18 nM | CO[C@@]1(C(=O)Nc2ccc3[nH]nc(-c4ccc(F)c(F)c4)c3c2)CCN(CC(=O)N2CCC(c3ccc(-c4ncccn4)cc3)CC2)C1 [Example 792]
0.16 to 18 nM | CO[C@@]1(C(=O)Nc2ccc3[nH]nc(-c4ccc(N(C)C)cc4)c3c2)CCN(CC(=O)N2CCC(c3ccc(-c4ncccn4)cc3)CC2)C1 [Example 793]
